Results from patent publication US10611777B2, “Imidazopyridazine compounds and their use” (HUTCHISON MEDIPHARMA LIMITED, priority 2014, dated 2020).
pIC50: −log10 of the molar value. Read-outs that look alike come from different tables or passages of the source.

Columns and labels:
Type in all cases: biochemical
PI3K-δ (p110δ/p85α) = PI3K-δ (p110δ/p85α) (Homo sapiens (Human), UniProt O00329); experiment: Fluorescent determination of PI3K enzyme activity (Transcreener KINASE Assay), PI3K-δ; details: for PI3K-δ IH%: inhibition rate at 1 μM
Method: (§1) PI3K kinases including p110α/p85α and p110γ were purchased from Invitrogen, p110δ/p85α and p110β/p85α were from Millipore.
(§2) It is a universal, homogenous, high throughput screening (HTS) technology using a far-red, competitive fluorescence polarization immunoassay based on the defection of ADP to monitor the activity of enzymes that catalyze group transfer reactions. […] The reaction mixture was added into desired wells of a 96-well plate. The plate was sealed and incubated for 80 min at room temperature. • 2) Next, 25 uL ADP detection mix was added into each well. The plate was sealed again and incubated for 60 min at room temperature. Then fluorescence polarization was measured by Tecan Infinite F500 Reader.
(§3) Data was analyzed and IC50 values were generated using the add-in software for Microsoft Excel, Xlfit™ (version 5.3).
(§4) Inhibition rates were calculated as follow: IH %=(ADP amount under 2% DMSO well−ADP amount under test compound well)/ADP amount under 2% DMSO well×100%.

PI3K-γ (p110γ) = PI3K-γ (p110γ) (Homo sapiens (Human), UniProt P48736); experiment: Fluorescent determination of PI3K enzyme activity (Transcreener KINASE Assay), PI3K-γ; details: for PI3K-γ IH%: inhibition rate at 1 μM;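 for all read-outs here: p110γ enzyme reaction for 80 min at room temperature, ADP formed measured by far-red competitive fluorescence polarization immunoassay, inhibition relative to wells with 2% DMSO only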
Method: as §1, §2, §3, §4

PI3K-β (p110β/p85α) = PI3K-β (p110β/p85α) (Homo sapiens (Human), UniProt P42338); experiment: Fluorescent determination of PI3K enzyme activity (Transcreener KINASE Assay), PI3K-β; details: inhibition rate at 1 μM;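 note: Far-red fluorescence polarization immunoassay detecting ADP produced by the kinase, 80 min enzyme reaction at room temperature, inhibition relative to ADP formed in 2% DMSO control wells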
PI3K-β (p110β/p85α), sequence (P42338 whole entry, species assumed): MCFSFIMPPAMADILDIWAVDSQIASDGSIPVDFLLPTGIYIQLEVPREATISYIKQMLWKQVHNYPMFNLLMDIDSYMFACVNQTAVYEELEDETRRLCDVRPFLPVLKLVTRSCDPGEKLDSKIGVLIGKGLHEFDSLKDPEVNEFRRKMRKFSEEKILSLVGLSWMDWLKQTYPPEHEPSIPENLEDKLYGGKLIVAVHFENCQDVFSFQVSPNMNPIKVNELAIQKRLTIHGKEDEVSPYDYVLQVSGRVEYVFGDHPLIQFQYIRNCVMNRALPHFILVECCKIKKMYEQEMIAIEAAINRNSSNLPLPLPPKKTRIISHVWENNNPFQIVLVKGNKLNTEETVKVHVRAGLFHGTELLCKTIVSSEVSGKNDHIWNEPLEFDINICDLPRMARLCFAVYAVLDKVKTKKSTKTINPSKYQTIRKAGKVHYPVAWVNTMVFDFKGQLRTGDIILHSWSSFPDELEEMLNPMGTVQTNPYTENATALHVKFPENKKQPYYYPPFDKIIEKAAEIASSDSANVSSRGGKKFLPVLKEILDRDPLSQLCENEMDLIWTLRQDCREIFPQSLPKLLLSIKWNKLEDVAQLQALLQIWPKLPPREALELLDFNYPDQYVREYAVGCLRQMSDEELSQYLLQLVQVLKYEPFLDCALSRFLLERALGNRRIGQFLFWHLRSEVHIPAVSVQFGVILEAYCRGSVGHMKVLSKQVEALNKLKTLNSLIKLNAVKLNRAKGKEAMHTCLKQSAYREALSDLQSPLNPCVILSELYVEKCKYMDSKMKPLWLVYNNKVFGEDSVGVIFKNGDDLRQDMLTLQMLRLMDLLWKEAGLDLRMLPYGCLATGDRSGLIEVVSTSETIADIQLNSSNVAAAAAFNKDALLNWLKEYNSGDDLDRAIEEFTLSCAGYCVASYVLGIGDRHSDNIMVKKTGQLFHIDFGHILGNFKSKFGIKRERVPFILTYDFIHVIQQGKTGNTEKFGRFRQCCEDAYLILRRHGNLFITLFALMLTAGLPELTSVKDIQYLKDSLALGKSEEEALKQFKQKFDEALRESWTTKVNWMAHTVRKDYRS
PI3K-β (p110β/p85α), sequence (P27986 whole entry partner, species assumed): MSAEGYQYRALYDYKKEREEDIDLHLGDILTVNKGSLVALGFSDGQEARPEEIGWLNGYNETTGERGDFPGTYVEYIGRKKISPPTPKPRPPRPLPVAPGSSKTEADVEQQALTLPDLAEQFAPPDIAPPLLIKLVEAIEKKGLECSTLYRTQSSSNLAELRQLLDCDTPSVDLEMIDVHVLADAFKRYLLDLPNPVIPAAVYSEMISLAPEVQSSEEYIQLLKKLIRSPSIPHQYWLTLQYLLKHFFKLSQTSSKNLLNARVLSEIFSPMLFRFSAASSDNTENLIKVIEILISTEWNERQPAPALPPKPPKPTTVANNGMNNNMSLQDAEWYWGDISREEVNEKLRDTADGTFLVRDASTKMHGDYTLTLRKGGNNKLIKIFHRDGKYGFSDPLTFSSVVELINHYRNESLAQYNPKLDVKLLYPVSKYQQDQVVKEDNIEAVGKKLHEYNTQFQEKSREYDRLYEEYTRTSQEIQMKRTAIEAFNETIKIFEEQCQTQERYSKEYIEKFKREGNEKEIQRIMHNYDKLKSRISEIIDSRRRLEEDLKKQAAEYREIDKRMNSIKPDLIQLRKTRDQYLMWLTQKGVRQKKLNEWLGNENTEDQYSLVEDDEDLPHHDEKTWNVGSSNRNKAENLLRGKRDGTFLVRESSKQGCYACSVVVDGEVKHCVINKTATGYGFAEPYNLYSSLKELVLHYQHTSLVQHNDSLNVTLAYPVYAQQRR
Method: as §1, §2, §3, §4

PI3K-γ (p110γ), sequence (P48736 whole entry, species assumed): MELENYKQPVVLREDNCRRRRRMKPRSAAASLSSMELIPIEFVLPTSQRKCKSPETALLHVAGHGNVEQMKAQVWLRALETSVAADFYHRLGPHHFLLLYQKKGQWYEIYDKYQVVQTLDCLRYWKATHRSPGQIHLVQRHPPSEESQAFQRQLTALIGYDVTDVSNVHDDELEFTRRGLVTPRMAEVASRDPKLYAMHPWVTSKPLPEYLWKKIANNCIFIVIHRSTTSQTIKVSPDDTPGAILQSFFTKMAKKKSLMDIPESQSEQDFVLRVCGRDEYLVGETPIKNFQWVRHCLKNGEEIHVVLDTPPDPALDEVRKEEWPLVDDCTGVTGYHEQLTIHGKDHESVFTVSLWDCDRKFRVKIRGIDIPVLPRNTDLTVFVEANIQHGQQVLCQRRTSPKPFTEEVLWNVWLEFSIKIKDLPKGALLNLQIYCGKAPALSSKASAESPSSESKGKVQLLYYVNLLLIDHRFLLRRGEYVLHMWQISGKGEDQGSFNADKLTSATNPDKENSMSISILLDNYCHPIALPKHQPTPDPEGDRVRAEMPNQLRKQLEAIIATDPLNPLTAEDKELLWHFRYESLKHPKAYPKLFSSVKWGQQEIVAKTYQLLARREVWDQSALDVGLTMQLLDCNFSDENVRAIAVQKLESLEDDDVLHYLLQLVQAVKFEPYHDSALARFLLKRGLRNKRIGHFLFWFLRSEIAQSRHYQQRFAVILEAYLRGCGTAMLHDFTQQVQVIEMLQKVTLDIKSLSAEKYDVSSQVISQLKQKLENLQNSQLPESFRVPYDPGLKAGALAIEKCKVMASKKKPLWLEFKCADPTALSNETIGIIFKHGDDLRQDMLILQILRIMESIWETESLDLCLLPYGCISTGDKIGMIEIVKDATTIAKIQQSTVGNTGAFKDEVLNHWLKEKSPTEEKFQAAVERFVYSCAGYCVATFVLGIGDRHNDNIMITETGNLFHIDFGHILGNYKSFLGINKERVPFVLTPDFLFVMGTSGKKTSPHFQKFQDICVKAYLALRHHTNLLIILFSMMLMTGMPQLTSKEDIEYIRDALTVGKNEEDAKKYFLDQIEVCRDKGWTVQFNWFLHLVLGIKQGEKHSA
PI3K-δ (p110δ/p85α), sequence (O00329 whole entry, species assumed): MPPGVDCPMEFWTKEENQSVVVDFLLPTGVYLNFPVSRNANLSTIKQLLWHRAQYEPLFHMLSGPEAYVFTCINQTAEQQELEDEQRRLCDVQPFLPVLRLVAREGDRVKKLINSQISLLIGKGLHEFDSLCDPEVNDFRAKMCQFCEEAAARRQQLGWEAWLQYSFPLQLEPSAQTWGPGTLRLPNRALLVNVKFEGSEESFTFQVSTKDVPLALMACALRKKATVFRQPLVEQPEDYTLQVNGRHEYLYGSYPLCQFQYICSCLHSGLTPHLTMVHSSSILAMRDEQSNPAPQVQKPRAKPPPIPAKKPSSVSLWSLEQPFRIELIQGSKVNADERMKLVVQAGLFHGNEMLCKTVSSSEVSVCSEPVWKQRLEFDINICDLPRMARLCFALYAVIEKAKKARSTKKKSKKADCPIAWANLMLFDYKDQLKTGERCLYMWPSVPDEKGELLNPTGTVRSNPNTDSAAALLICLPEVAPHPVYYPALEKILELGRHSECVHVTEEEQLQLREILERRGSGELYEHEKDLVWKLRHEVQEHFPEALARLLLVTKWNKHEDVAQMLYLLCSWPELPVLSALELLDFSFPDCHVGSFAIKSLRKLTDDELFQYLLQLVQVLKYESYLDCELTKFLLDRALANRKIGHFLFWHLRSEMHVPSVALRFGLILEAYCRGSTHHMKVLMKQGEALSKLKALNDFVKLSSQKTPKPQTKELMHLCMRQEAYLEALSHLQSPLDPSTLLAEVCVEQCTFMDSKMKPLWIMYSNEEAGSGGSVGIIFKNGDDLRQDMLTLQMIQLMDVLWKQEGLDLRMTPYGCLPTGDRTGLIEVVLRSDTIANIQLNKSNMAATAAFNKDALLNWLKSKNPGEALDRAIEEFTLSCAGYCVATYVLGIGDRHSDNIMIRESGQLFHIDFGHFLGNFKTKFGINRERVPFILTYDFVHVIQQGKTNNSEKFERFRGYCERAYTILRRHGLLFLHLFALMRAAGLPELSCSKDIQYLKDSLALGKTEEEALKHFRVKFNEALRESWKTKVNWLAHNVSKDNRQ
PI3K-δ (p110δ/p85α), sequence (P27986 whole entry partner, species assumed): as the sequence (P27986 whole entry partner, species assumed) above

Structure (SMILES) | PI3K-δ IH% (PI3K-δ (p110δ/p85α)) | PI3K-β IH% (PI3K-β (p110β/p85α)) | PI3K-γ IH% (PI3K-γ (p110γ)) | pIC50 (PI3K-δ (p110δ/p85α)) | pIC50 (PI3K-γ (p110γ)) | pIC50 (PI3K-γ (p110γ); read-out: PI3K-γ IC50)
CCC(Nc1ncnc2[nH]cnc12)c1cc2ncc(Cl)n2nc1-c1ccccc1F (single isomer, unassigned) [Compound 25] |  |  |  | 8.40 | 5.59 | 
CCC(Nc1ncnc2[nH]cnc12)c1cc2ncc(Cl)n2nc1-c1ccccc1F (single isomer, unassigned) [Compound 26] |  |  |  | 6.08 |  | 
CCC(Nc1ncnc2[nH]cnc12)c1cc2ncc(Cl)n2nc1-c1ccccc1 (centres unmarked) [Compound 14] | 51.0% | 3.2% | 22.5% |  |  | 
CCC(Nc1ncnc2[nH]cnc12)c1cc2ncc(Cl)n2nc1-c1ccccc1F (centres unmarked) [Compound 26] |  | −7.5% | 8% |  |  | 
C[C@@H](c1cc2ncc(Cl)n2nc1-c1ccccc1)n1ccc2c(N)ncnc21 [Compound 27, (S)-7-(1-(3-chloro-6-phenylimidazo[1,2-b]pyridazin-7-yl)ethyl)-7H-pyrrolo[2,3-d]pyrimidin-4-amine] |  | 9.5% | 24.9% |  |  | 
C[C@H](Nc1ncnc(N)c1-c1cccc(F)c1)c1cc2ncc(Cl)n2nc1-c1ccccc1 [Compound 37, (S)-N^4-(1-(3-chloro-6-phenylimidazo[1,2-b]pyridazin-7-yl)ethyl)-5-(3-fluorophenyl)pyrimidine-4,6-diamine] |  | −0.4% | 27.5% |  |  | 
C[C@H](Nc1ncnc(N)c1-c1ccc(O)c(F)c1)c1cc2ncc(Cl)n2nc1-c1ccccc1 [Compound 38] |  | −2.2% | 54.3% |  |  | 
COc1ccc(-c2c(N)ncnc2N[C@@H](C)c2cc3ncc(Cl)n3nc2-c2ccccc2)cn1 [Compound 39] |  | −4.4% | 28.1% |  |  | 
C[C@@H](c1cc2ncc(Cl)n2nc1-c1ccccc1)N(C)c1ncnc(N)c1C#N [Compound 42, (S)-4-amino-6-((1-(3-chloro-6-phenylimidazo[1,2-b]pyridazin-7-yl)ethyl)(methyl)amino)pyrimidine-5-carbonitrile] |  | 7.4% | 18.2% |  |  | 
CC[C@@H](Nc1ncnc2[nH]cnc12)c1cc2ncc(Cl)n2nc1-c1cccc(F)c1 [Compound 44] |  | 18.8% | 36.0% |  |  | 
CC[C@H](Nc1ncnc2[nH]cnc12)c1cc2ncc(Cl)n2nc1-c1cccc(F)c1 [Compound 47] |  | 32.2% | 55.2% |  |  | 
COc1cc(-c2c(N)ncnc2N[C@@H](C)c2cc3ncc(Cl)n3nc2-c2ccccc2)ccn1 [Compound 50] | 68.9% | −14.1% | 5.5% |  |  | 
C[C@H](Nc1ncnc(N)c1C(=O)N(C)C)c1cc2ncc(Cl)n2nc1-c1ccccc1 [Compound 56] | 21.0% | 9.0% | 1.0% |  |  | 
C[C@H](Nc1ncnc(N)c1-c1cnn(C)c1)c1cc2ncc(Cl)n2nc1-c1ccccc1 [Compound 57] |  | 6.3% | 30.3% |  |  | 
Cc1cn2nc(-c3ccccc3)c([C@H](C)Nc3ncnc(N)c3C#N)cc2n1 [Compound 58] |  | 20.5% | 20.2% |  |  | 
C[C@H](Nc1ncnc(N)c1C#N)c1cc2ncc(Cl)n2nc1-c1ccc2c(c1)OCCO2 [Compound 70] |  | 37.4% |  | 7.66 |  | 5.70

Second part, led by results:

PI3K-δ IH% (PI3K-δ (p110δ/p85α)) | PI3K-β IH% (PI3K-β (p110β/p85α)) | PI3K-γ IH% (PI3K-γ (p110γ)) | Structure (SMILES) | pIC50 (PI3K-δ (p110δ/p85α)) | pIC50 (PI3K-γ (p110γ)) | pIC50 (PI3K-γ (p110γ); read-out: PI3K-γ IC50)
47.3% | −10.7% |  | CC[C@@H](Nc1ncnc(N)c1C#N)c1cc2ncc(Cl)n2nc1-c1ccccc1 [Compound 5, (R)-4-amino-6-((1-(3-chloro-6-phenylimidazo[1,2-b]pyridazin-7-yl)propyl)amino)pyrimidine-5-carbonitrile] |  |  | 
12.5% | −2.7% | 61.1% | C[C@@H](Nc1ncnc(N)c1C#N)c1cc2ncc(Cl)n2nc1-c1ccccn1 [Compound 7, (R)-4-amino-6-((1-(3-chloro-6-(pyridin-2-yl)imidazo[1,2-b]pyridazin-7-yl)ethyl)amino)pyrimidine-5-carbonitrile] |  |  | 
 | 46.6% | 44.5% | CCC(Nc1ncnc(N)c1C#N)c1cc2ncc(Cl)n2nc1-c1cccc(F)c1 (centres unmarked) [Compound 24] |  |  | 
39.8% | 11.1% | 18.8% | CCC(Nc1ncnc(N)c1C#N)c1cc2ncc(Cl)n2nc1-c1ccccn1 (centres unmarked) [Compound 28] |  |  | 
 | 2.2% | −6.9% | CNc1ncnc(N[C@@H](C)c2cc3ncc(Cl)n3nc2-c2ccccc2)c1C#N [Compound 33, (S)-4-((1-(3-chloro-6-phenylimidazo[1,2-b]pyridazin-7-yl)ethyl)amino)-6-(methylamino)pyrimidine-5-carbonitrile] |  |  | 
8.3% | 3.7% | −19.3% | C[C@H](Nc1nc(N)ncc1C#N)c1cc2ncc(Cl)n2nc1-c1ccccc1 [Compound 34] |  |  | 
 | 67.6% | 64.6% | C[C@H](Nc1ncnc(N)c1C#N)c1cc2ncc(Cl)n2nc1-c1cc(F)ccc1F [Compound 35] |  |  | 
 | 23.6% | 27.2% | CC[C@@H](Nc1ncnc(N)c1C#N)c1cc2ncc(Cl)n2nc1-c1cccc(F)c1 [Compound 43, (R)-4-amino-6-((1-(3-chloro-6-(3-fluorophenyl)imidazo[1,2-b]pyridazin-7-yl)propyl)amino)pyrimidine-5-carbonitrile] |  |  | 
 | −15.5% | 36.7% | C[C@H](Nc1nc[n+]([O-])c(N)c1C#N)c1cc2ncc(Cl)n2nc1-c1ccccc1 [Compound 51, (S)-6-amino-4-((1-(3-chloro-6-phenylimidazo[1,2-b]pyridazin-7-yl)ethyl)amino)-5-cyanopyrimidine 1-oxide] |  |  | 
 | −6.3% | −26.1% | C[C@H](Nc1ncnc(N)c1C(=O)O)c1cc2ncc(Cl)n2nc1-c1ccccc1 [Compound 52, (S)-4-amino-6-((1-(3-chloro-6-phenylimidazo[1,2-b]pyridazin-7-yl)ethyl)amino)pyrimidine-5-carboxylic acid] |  |  | 
 | 30.5% | 34.3% | C[C@H](Nc1ncnc(N)c1C(N)=O)c1cc2ncc(Cl)n2nc1-c1ccccc1 [Compound 53, (S)-4-amino-6-((1-(3-chloro-6-phenylimidazo[1,2-b]pyridazin-7-yl)ethyl)amino)pyrimidine-5-carboxamide] |  |  | 
60.3% | 8.5% | −4.7% | C[C@H](Nc1nc(O)nc(N)c1C#N)c1cc2ncc(Cl)n2nc1-c1ccccc1 [Compound 55, (S)-4-amino-6-((1-(3-chloro-6-phenylimidazo[1,2-b]pyridazin-7-yl)ethyl)amino)-2-hydroxypyrimidine-5-carbonitrile] |  |  | 
 | 24.4% | 26.5% | C[C@H](Nc1ncnc(N)c1C#N)c1cc2ncc(Cl)n2nc1-c1ccc2cccnc2c1 [Compound 61] |  |  | 
 | 35.2% | 32.6% | C[C@H](Nc1ncnc(N)c1C#N)c1cc2ncc(Cl)n2nc1-c1ccc2ccccc2c1 [Compound 71] |  |  | 
 | 60.8% | 62.8% | C[C@H](Nc1ncnc(N)c1C#N)c1cc2ncc(Cl)n2nc1-c1ccncc1 [Compound 73] |  |  | 
 | 49.4% | 40.8% | C[C@H](Nc1ncnc(N)c1C#N)c1cc2ncc(Cl)n2nc1-c1ccc2scnc2c1 [Compound 74] |  |  | 
